Test results: ChEMBL document CHEMBL1201862, “PubChem BioAssay data set” (2004)
Active and inactive are the calls of the source.

How the values were obtained:
H4 = assay: Luminescence Cell-Based Dose Response HTS to Identify Activators of 5'UTR Stem-Loop Driven Prion Protein mRNA Translation in H4 Neuroglioblastoma Cells. [Related pubchem assays: 1829 (Project Summary), 1814 (Primary HTS)]; format: functional; settings: Homo sapiens
[1] = Luminescence Cell-Based Dose Response HTS to Identify Activators of Luciferase Translation or Activity in H4 […] Cells. [Related pubchem assays: 1829 (Project Summary), 1814 (Primary HTS)]; format: functional
cells [2] = format: functional, cell-based
cells [3] = format: functional, cell-based; remark: listed apart in the source
Fatty acid synthase [4] = molecular target: T1, Fatty acid synthase (Homo sapiens, UniProt P49327); assay: FAS thioesterase domain inhibitors, dose response, biochemical, endpoint fluorescence intensity, uHTS hits (AID 624327); format: functional;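 also: fluorescence from hydrolysis of an O-methyl fluorescein acyl ester substrate by the enzyme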
Fatty acid synthase [5] = molecular target: T1, Fatty acid synthase; assay: FAS thioesterase domain inhibitors, dose response, biochemical, kinetic fluorescence intensity (AID 624326); format: functional;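 also: rate of fluorescence rise from hydrolysis of a fluorogenic O-methyl fluorescein ester substrate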
Cytochrome P450 1A2 = molecular target: T2, Cytochrome P450 1A2 (Homo sapiens, UniProt P05177);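 also: PubChem cytochrome P450 panel assay, CYP1A2 panel member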
T2 sequence (P05177 whole entry): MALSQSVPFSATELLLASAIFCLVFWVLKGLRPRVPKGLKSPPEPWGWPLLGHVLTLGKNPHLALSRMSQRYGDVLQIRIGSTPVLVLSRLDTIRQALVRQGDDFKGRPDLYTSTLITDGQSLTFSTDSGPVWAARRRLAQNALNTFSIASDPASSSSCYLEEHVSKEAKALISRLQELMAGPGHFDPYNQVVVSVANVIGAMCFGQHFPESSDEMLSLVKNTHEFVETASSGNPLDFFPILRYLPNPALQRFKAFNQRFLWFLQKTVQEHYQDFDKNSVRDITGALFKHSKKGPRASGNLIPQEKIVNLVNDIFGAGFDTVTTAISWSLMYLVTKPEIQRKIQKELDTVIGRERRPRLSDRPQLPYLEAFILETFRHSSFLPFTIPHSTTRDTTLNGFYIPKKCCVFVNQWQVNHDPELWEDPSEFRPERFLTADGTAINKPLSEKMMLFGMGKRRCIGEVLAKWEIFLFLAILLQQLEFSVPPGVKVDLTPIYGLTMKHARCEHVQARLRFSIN

[6] = molecular target: T3, Calpain-2 catalytic subunit (Sus scrofa, UniProt P43367); assay: pig calpain II inhibitor potency, dose response, biochemical, fluorogenic peptide substrate (AID 1420); format: functional
T3 sequence (P43367 whole entry): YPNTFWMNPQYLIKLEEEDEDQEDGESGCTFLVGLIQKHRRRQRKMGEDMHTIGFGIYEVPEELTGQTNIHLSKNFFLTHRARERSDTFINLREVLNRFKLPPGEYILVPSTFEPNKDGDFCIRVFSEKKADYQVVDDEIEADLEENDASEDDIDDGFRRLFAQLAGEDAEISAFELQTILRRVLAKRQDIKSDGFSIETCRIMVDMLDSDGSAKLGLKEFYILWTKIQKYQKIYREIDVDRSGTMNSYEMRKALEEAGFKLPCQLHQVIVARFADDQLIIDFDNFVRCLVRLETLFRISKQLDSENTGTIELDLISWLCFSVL

BJ [7] = assay: cells; format: functional, cell-based; settings: Homo sapiens
BJ [8] = assay: cytotoxicity toward BJ-TERT-LT-ST fibroblasts, dose response, cell-based, RAS-independent, luminescence (AID 1935); format: functional; settings: Homo sapiens;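 also: BJ fibroblasts immortalized with TERT plus LT and ST oncogenes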
[9] = cytotoxicity toward DRD oncogenic fibroblasts, dose response, cell-based, non-viral oncogenic, luminescence (AID 1934); format: functional; settings: Homo sapiens
BJ [10] = assay: cytotoxicity toward BJ-TERT fibroblasts, dose response, cell-based, RAS-independent, luminescence (AID 1933); format: functional; settings: Homo sapiens
[11] = inhibitors of firefly luciferase expression or activity, dose response, H4 neuroglioma cells, luminescence (AID 1990); format: functional, cell-based
[12] = inhibitors of SNCA 5'UTR-driven reporter translation, confirmation, H4 neuroglioma cells, luminescence (AID 1988); format: functional, cell-based
[13] = Luminescence Cell-Based Dose Response HTS to Identify Inhibitors of 5'UTR Stem-Loop Driven Prion Protein mRNA Translation in H4 Neuroglioblastoma Cells. [Related pubchem assays: 1827 (Project Summary), 1813 (Primary HTS)]; format: functional
[14] = Luminescence Cell-Based Dose Retest to Confirm Inhibitors of Cancer Stem Cells. [Related pubchem assays (depositor defined):AID2717, AID2721]; format: functional; settings: Homo sapiens
[15] = P. falciparum Dd2 growth inhibitors, dose response, SYBR Green, cherry-picked samples (AID 1159567); format: functional, cell-based
INS1 = assay: beta cell apoptosis inhibitors, cytokine rescue, dose response, luminescence, retest (AID 449756); format: functional, cell-based; settings: Rattus norvegicus;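 also: cell death triggered by IL-1 beta plus TNF-alpha plus IFN-gamma mixture; protective hits raise ATP signal compared with cytokine alone wells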
[16] = control 3'UTR Renilla luciferase suppression, dose response, counter-screen for Shn3 inhibitor project, cell-based, Clone20-Shn3RL, cherry-picked (AID 624133); format: functional
Paired box protein Pax-8 = Paired box protein Pax-8 (Homo sapiens, UniProt Q06710); assay: inhibitors of PAX8-driven TPO luciferase reporter, dose response, RMG-I cells, cherry-pick (AID 687027); format: functional, cell-based;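 also: luciferase reporter driven by Pax8 target thyroperoxidase promoter measured by SteadyGlo luminescence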
[17] = HepG2 cell cytotoxicity, dose response, cytotoxicity control for Shn3 inhibitor project, CellTiter-Glo, cherry-picked (AID 624134); format: functional, cell-based
[18] = Shn3 3'UTR reporter inhibitors, dose response, cell-based, Clone20 osteoblasts, firefly luciferase, cherry-picked (AID 624132); format: functional;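 also: firefly luciferase luminescence from reporter carrying the Shn3 3'UTR in osteoblasts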
[19] = HEp-2 cell cytotoxicity, dose response, cytotoxicity control for RSV inhibitor project, HTS (AID 2410); format: functional; settings: human respiratory syncytial virus
Vero = assay: cells; format: functional; settings: Chlorocebus sabaeus

T1 sequence (P49327 whole entry, the tested form may be a part): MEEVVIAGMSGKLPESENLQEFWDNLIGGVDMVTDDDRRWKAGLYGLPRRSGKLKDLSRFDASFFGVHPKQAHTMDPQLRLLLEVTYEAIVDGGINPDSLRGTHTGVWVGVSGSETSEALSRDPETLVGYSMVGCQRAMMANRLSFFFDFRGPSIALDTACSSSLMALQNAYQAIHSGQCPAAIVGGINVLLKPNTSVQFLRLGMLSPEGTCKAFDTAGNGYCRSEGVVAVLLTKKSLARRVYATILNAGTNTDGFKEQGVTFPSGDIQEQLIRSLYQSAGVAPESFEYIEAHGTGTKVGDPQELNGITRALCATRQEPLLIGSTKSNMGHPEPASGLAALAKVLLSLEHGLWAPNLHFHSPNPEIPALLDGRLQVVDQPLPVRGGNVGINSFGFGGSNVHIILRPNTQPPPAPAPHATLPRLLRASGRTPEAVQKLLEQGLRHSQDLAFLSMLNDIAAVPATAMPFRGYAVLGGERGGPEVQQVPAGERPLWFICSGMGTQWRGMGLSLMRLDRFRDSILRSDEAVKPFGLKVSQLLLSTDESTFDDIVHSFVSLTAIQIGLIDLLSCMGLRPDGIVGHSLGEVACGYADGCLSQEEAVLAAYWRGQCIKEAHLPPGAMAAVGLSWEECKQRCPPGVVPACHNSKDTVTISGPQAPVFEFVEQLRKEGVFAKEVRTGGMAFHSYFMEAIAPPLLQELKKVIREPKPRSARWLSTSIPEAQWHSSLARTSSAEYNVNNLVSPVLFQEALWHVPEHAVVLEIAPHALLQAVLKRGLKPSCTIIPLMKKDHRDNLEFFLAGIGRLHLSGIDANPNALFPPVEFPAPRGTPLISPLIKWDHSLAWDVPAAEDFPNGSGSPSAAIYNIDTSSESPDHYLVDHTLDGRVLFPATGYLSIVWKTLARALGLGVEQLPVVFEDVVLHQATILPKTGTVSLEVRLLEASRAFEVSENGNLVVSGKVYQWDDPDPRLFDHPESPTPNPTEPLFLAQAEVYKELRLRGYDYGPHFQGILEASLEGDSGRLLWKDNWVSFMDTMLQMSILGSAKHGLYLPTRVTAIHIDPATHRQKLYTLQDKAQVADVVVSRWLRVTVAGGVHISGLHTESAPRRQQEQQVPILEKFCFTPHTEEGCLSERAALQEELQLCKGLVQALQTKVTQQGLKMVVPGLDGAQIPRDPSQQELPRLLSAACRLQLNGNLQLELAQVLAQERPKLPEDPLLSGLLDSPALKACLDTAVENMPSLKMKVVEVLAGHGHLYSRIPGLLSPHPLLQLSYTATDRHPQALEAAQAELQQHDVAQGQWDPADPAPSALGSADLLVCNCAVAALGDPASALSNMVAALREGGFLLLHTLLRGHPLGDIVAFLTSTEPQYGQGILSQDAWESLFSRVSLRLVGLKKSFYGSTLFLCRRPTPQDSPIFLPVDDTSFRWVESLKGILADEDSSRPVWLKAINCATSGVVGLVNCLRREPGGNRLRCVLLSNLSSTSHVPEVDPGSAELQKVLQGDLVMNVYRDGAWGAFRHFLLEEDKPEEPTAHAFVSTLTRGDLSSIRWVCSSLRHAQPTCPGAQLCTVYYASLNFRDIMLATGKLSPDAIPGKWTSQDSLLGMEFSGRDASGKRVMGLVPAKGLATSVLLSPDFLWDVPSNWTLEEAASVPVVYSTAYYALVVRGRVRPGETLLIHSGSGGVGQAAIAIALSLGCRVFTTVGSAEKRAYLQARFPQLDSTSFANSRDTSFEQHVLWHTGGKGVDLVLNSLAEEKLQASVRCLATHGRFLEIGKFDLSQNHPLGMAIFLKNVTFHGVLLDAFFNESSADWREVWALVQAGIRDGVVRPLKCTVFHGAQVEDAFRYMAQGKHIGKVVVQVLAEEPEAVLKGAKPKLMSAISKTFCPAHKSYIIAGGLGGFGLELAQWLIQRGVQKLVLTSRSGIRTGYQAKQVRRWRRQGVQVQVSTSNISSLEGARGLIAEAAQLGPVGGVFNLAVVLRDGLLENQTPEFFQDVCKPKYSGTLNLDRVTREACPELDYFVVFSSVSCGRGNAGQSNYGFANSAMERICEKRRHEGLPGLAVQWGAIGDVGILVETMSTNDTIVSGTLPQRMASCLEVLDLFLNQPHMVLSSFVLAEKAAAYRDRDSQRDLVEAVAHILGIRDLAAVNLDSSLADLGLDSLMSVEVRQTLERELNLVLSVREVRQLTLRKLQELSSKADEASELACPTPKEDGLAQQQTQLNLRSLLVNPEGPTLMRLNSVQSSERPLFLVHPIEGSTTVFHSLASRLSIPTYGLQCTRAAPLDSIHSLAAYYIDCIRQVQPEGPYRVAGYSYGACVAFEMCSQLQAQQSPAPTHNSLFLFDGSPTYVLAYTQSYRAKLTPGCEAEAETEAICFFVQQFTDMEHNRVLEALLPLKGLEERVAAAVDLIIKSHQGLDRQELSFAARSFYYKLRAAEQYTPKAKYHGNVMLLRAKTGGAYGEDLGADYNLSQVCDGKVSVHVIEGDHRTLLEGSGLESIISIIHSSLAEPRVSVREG
Chain of Paired box protein Pax-8 (Q06710 whole entry): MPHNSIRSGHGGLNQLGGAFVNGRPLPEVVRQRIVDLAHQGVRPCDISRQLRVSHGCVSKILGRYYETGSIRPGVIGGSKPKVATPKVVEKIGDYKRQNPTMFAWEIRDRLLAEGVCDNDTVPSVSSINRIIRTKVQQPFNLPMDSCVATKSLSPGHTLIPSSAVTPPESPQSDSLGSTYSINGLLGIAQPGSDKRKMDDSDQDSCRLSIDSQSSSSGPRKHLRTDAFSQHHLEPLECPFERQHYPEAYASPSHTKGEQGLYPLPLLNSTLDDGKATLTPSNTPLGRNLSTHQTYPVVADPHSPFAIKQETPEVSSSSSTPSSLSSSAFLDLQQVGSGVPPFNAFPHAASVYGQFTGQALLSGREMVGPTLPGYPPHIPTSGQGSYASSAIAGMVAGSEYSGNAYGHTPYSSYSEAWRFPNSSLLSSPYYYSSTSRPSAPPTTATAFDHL

O=C(Nc1cnc2sccn2c1=O)c1ccccc1Cl
EC50 (H4): > 120 µM (not active)
EC50 [1]: 0.199 µM (active)

Cc1ccc(C2=NS(=O)(=O)N(C)C(C(=O)NC3CCCC3)=C2)cc1
EC50 (cells [2]): > 350 µM (not active)
EC50 (cells [3]): > 350 µM (not active)

CN(C(=O)COC(=O)c1cc([N+](=O)[O-])ccc1Cl)c1ccccc1
IC50 (Fatty acid synthase [4]): 9.59 µM (active)
IC50 (Fatty acid synthase [5]): 7 µM (active)

O=C(O)c1cccc(N2CCCC2=O)c1
EC50 (cells [2]): > 350 µM (not active)
AC50 (Cytochrome P450 1A2): 14.1 µM (inconclusive)
EC50 (cells [3]): > 350 µM (not active)

O=C(/C=C/c1cc([N+](=O)[O-])ccc1OC(F)F)NCc1ccc(F)cc1
IC50 (Fatty acid synthase [4]): 1.33 µM (active)
IC50 (Fatty acid synthase [5]): 0.999 µM (active)

COc1ccc(N2CCN(C(=O)COc3ccc4c(C)c(C)c(=O)oc4c3C)CC2)cc1
EC50 (cells [2]): > 350 µM (not active)
EC50 (cells [3]): > 350 µM (not active)

CC(C)Cn1c(N)c(C(=O)COC(=O)c2ccc(Cl)cc2)c(=O)n(C)c1=O
IC50 [6]: 2.21 µM (active)

CCC1=Nc2cc(C(=O)NCCN3CCOCC3)ccc2Sc2ccc(Br)cc21
EC50 (BJ [7]): > 150 µM (not active)
EC50 (BJ [8]): > 150 µM (not active)
EC50 [9]: > 150 µM (not active)
EC50 (BJ [10]): > 150 µM (not active)

COc1cc(-c2noc(C)c2C#Cc2ccccn2)cc(OC)c1OC
EC50 [11]: 9.32 µM (active)
EC50 [12]: 0.25 µM (active)
EC50 [13]: > 120 µM (not active)
AC50 [14]: 0.394 µM (active)

COc1ccc(-c2cc3nc(C)c(CCC(=O)NC(C)CCc4ccco4)c(C)n3n2)c(OC)c1 (centres undefined)
EC50 [11]: > 120 µM (not active)
EC50 [12]: > 120 µM (not active)
EC50 [13]: > 120 µM (not active)

Cc1ccccc1NC(=O)CN(C)S(=O)(=O)c1ccc(-c2ccc(O)nn2)s1
EC50 (cells [2]): > 350 µM (not active)
EC50 (cells [3]): > 350 µM (not active)

O=C(NCc1ccc2c(c1)OCO2)c1ccc2c(c1)N(Cc1c(F)cccc1Cl)C(=O)CS2
IC50 (Fatty acid synthase [4]): 10.3 µM (active)
IC50 (Fatty acid synthase [5]): 6.15 µM (active)

COC(=O)c1c(C)n(Cc2ccccc2)c2ccc(O)cc12
EC50 [11]: > 120 µM (not active)
EC50 [12]: > 120 µM (not active)
EC50 [13]: > 120 µM (not active)

COc1ccc(CCNc2nncc(O)n2)cc1OC
EC50 (cells [2]): > 350 µM (not active)
EC50 (cells [3]): > 350 µM (not active)

CCN(CC)c1ccc(C(=O)NNC(=O)CCl)cc1
IC50 [6]: 9.84 µM (active)

Cc1cc(C(=O)Nc2ccc3c(c2)OCCO3)ccc1[N+](=O)[O-]
EC50 [13]: 13.7 µM (active)

O=C(c1ccccn1)N1CC[C@H]2[C@H](CO)Nc3ccc(-c4ccccc4)cc3[C@H]21
AC50 [15]: 12.4 µM (active)

Cc1ccc(-c2[nH]ncc2/C=N/n2c(COc3ccccc3C)nc3ccccc3c2=O)cc1
IC50 [6]: 28 µM (not active)
AC50 (INS1): 6.28 µM (active)

O=C(CN1C(=O)c2ccc([N+](=O)[O-])cc2C1=O)NCCC1=CCCCC1
IC50 (Fatty acid synthase [4]): 20.9 µM (inactive)
IC50 (Fatty acid synthase [5]): 15.4 µM (active)

COc1ccc2c3c(n(C)c2c1)[C@@H](CO)N(CC1CCCCC1)CC31CCN(C(=O)CN(C)C)CC1
AC50 [15]: 5.49 µM (active)

O=C(O)c1cccnc1SCc1ccccc1Cl
EC50 (cells [2]): > 350 µM (not active)
EC50 (cells [3]): > 350 µM (not active)

O=C(Nc1ccccc1Cl)N1CCN(c2ccc3nnc(-c4ccc(F)cc4)n3n2)CC1
EC50 [11]: 13.4 µM (active)
EC50 [12]: > 120 µM (not active)
EC50 [13]: 15.2 µM (active)

O=C1CC(c2ccccc2)Sc2nc3ccccc3n21 (centres undefined)
EC50 (H4): 15.4 µM (active)
EC50 [1]: 15.4 µM (active)

CC(C)C[C@H](NC(=O)c1[nH]cnc1C(=O)NCCCCCNC(=O)OC(C)(C)C)C(=O)OC(C)(C)C
IC50 [6]: 26.6 µM (not active)

COC(=O)c1cc(C(=O)OCC(=O)NC2CCCCCCC2)cc([N+](=O)[O-])c1
IC50 (Fatty acid synthase [4]): 7.09 µM (active)
IC50 (Fatty acid synthase [5]): 8 µM (active)

c1ccc(OCc2nc(-c3ccncc3)no2)cc1
EC50 (cells [2]): > 350 µM (not active)
EC50 (cells [3]): > 350 µM (not active)

C=C1CC(COc2ccc3c(C)c(Cl)c(=O)oc3c2)(c2ccccc2)OC1=O (centres undefined)
AC50 [16]: 9.25 µM (active)
IC50 (Fatty acid synthase [4]): 10.5 µM (active)
AC50 (Paired box protein Pax-8): 5.9 µM (active)
IC50 (Fatty acid synthase [5]): 12 µM (active)
AC50 [17]: 13.2 µM (active)
AC50 [18]: 4.82 µM (active)

CCCCCCCC1CC(=O)C=C(C)C1C(=O)OCC (centres undefined)
EC50 (cells [2]): > 350 µM (not active)
EC50 (cells [3]): > 350 µM (not active)

Cc1ccc(N(CCCCN2C(=O)c3ccccc3C2=O)C(=O)c2ccc(Cl)s2)cc1
IC50 [6]: 2.83 µM (not active)
CC50 [19]: 24.1 µM (active)

CCOC(=O)/C(=C/c1ccc(OC(F)F)cc1)C1=Nn2c(nnc2-c2ccc(Cl)cc2)SC1
CC50 (Vero): 7.48 µM (active)

Nc1ccccc1Sc1ccc(C(F)(F)F)cc1[N+](=O)[O-]
IC50 [6]: 2.55 µM (active)

CC(C)N(C(=O)COC(=O)c1ccc(O)cc1)C(C)C
IC50 [6]: 18.7 µM (not active)

CCn1cnc2c1c(=O)n(CC(=O)Nc1ccc3c(c1)OC(F)(F)O3)c(=O)n2Cc1ccccc1
IC50 [6]: < 0.4 µM (not active)

CCCn1c(SCC(=O)Nc2ccccc2OC)nnc1-c1ccco1
EC50 (BJ [7]): 50.9 µM (active)
EC50 (BJ [8]): > 150 µM (inconclusive)
EC50 [9]: 21.1 µM (active)
EC50 (BJ [10]): 29.2 µM (active)

Nc1nc(N)c2cc(CNc3ccc(Cl)c(Cl)c3)ccc2n1
AC50 [16]: 3.34 µM (active)
AC50 [17]: 1.21 µM (active)
AC50 [18]: 0.956 µM (active)

COc1ccccc1NC(=O)COC(=O)C12CC3CC(CC(Cl)(C3)C1)C2
IC50 [6]: 13 µM (not active)

CC(=O)c1ccc(NC(=O)C(C)OC(=O)/C=C/c2ccco2)cc1 (centres undefined)
AC50 [16]: 15.3 µM (active)
AC50 [17]: > 70 µM (inactive)
AC50 [18]: 9.12 µM (active)

c1coc(-c2nnc3n2C2(CCCC2)Cc2ccccc2-3)c1
EC50 [11]: > 120 µM (not active)
EC50 [12]: > 120 µM (not active)
EC50 [13]: > 120 µM (not active)

CCOC(=O)c1c(NC(=O)CN2C(=O)NC3(CCC(C)CC3)C2=O)sc(C)c1-c1ccc(C)cc1 (centres undefined)
EC50 (cells [2]): 49.6 µM (active)
EC50 (cells [3]): > 350 µM (not active)

C/N=C1/c2cc3cc(OC)ccc3n2CCN1Cc1ccccc1
AC50 [17]: 45.4 µM (active)

Cc1c(C(=O)N2CCOCC2)sc(NC(=O)CCl)c1C#N
CC50 (Vero): 22.3 µM (active)

O=C(CCNC(=O)c1ccc([N+](=O)[O-])cc1)NCCC1=CCCCC1
IC50 (Fatty acid synthase [4]): 3.75 µM (active)
IC50 (Fatty acid synthase [5]): 3.4 µM (active)

C[C@H]1CN([C@@H](C)CO)C(=O)c2ccccc2-c2ccccc2CO[C@H]1CN(C)Cc1cccc(C(F)(F)F)c1
AC50 [15]: 4.48 µM (active)

COc1ccc2c(c1)CCc1cc(C(=O)N3CCN(c4ccc(N5CCOCC5)nn4)CC3)sc1-2
EC50 [11]: 13.6 µM (active)
EC50 [12]: > 120 µM (not active)
EC50 [13]: > 120 µM (not active)

O=[N+]([O-])c1cccc(/C=N\N=C2c3ccccc3-c3ccccc32)c1O
IC50 [6]: < 0.4 µM (not active)

Cc1ccccc1NC(=O)Cn1c(=O)n(Cc2ccccc2)c(=O)c2c(C)c(C)sc21
IC50 [6]: 15 µM (not active)
